# Measurements taken from PubChem BioAssay AID489023 (Sanford-Burnham Center for Chemical Genomics, 2010).
# Activity calls are given as the source filed them. The rule behind the calls is not given here.
# Test system: 697B cells, BCR-induced NF-kB luciferase reporter luminescence
# Assay: B-cell receptor NF-kB reporter inhibition – 697B cells, luciferase luminescence, dose response (AID 489023)
row,SMILES,IC50
1,Cc1cc(C)c2nc(NC(=O)C3CSC4(C)CCC(=O)N34)sc2c1 (stereo not drawn),32.2 µM (inactive)
2,Cc1cc(C)cc(OCc2nnc(SCC(=O)c3ccccc3)o2)c1,> 80 µM (inactive)
3,O=C(CCl)Nc1ccccc1Sc1ccccc1,15.9 µM
4,COc1cc(Br)c(C(=O)c2nccc3cc(OC)c(OC)cc23)cc1OC,> 80 µM (inactive)
5,Cc1ccc2nc(NC(=O)CSCC(=O)OCC(=O)c3ccc(Br)cc3)sc2c1,3.6 µM
6,COc1cc(OC)c(/C=N/NC(N)=S)cc1Br,34.2 µM (inactive)
7,COc1ccc(C2=NCc3nnc(C)n3-c3ccc(Cl)cc32)cc1Cl,43.6 µM (inactive)
8,CC1=CC(C)(C)Nc2ccc(OC(=O)C(Cc3ccccc3)N3C(=O)c4ccccc4C3=O)cc21 (stereo not drawn),> 80 µM (inactive)
9,O=C(Nc1ccc(NC(=O)c2cc3ccccc3o2)cc1)c1ccc2c(c1)OCCO2,0.3 µM
10,Cc1cc(=O)[nH]c2c(C)cc(S(=O)(=O)N3CCCCC3)cc12,> 80 µM (inactive)
11,Cc1ccc(-c2nn3c(C)nnc3c3ccccc23)cc1S(=O)(=O)N1CCN(CCO)CC1,26.5 µM (inactive)
12,COc1ccc(OCc2cccc(C(=O)NN)c2)cc1,2.43 µM
13,COc1ccc(/C=C2/SC(=S)N(CCCC(=O)Nc3cccc(O)c3)C2=O)cc1,3.88 µM
14,CC1CC(C)CN(S(=O)(=O)c2ccc(C(=O)NCCCn3ccnc3)cc2)C1 (stereo not drawn),5.07 µM
15,Oc1[nH]c2ccccc2c1N=Nc1nc(Nc2ccccc2)nc(N2CCOCC2)n1,1.36 µM
16,COc1ccc(/C=C2/SC(=S)N(CCCC(=O)Nc3ccc(O)cc3)C2=O)cc1,0.44 µM
17,CCOC(=O)N1CCN(c2ncnc3c2[nH]c2ccc(OC)cc23)CC1,60 µM (inactive)
18,Cn1c(=O)cc(Nc2ccccc2)c2c(=O)n(-c3ccccc3)c(=O)n(-c3ccccc3)c21,5.6 µM
19,C(=N\Nc1nc(Nc2ccccc2)nc(N2CCOCC2)n1)/c1c[nH]c2ccccc12,< 0.16 µM
20,CCCCCC/C=C/c1ccc(OC)c([C@H]2[C@H]3C=CC[C@@H](C)[C@@H]3C(=O)N2Cc2ccccc2)c1,> 80 µM (inactive)
21,Cn1c(=O)cc(OCC(=O)N2CCC3(CC2)OCCO3)c2ccccc21,67.5 µM (inactive)
22,CCOC(=O)Cc1csc(NC(=S)NC(=O)c2ccc(Cl)cc2)n1,30.6 µM (inactive)
23,CCN(CC(=O)Nc1c(F)cccc1F)C(=O)c1cc(S(=O)(=O)N(C)C)ccc1N1CCCC1,12.2 µM
24,Cc1ccc(-c2cc(C(=O)NCCCN3CCOCC3)no2)cc1,11.5 µM
25,Cn1c(=O)n(C)c2cc(C(=O)Nc3ccc4c(c3)OCO4)ccc21,35.2 µM (inactive)

row,SMILES,IC50
1,CC(C)N1C(=O)S/C(=C/c2ccc3c(c2)n(C)c(=O)n3C)C1=O,> 80 µM (inactive)
2,C[C@H]1CCC/C=C/C2C[C@H](O)CC2[C@H](O)/C=C/C(=O)O1 (stereo partly drawn),> 80 µM (inactive)
3,CC1CCN(c2c(NCc3ccc(C(=O)N4c5ccccc5CC4C)cc3)c(=O)c2=O)CC1 (stereo not drawn),> 80 µM (inactive)
4,Cc1nc2ccccn2c1C(=O)/C=C/c1cccc([N+](=O)[O-])c1,22.8 µM (inactive)
5,COc1ccc(NC(=O)CN(C)C(=O)C2(c3ccccc3)CCCC2)cc1,3.56 µM
6,O=C(Nc1cccc(Br)c1)c1ccc2c(c1)SC1=NS(=O)(=O)CCN12,15.7 µM
7,Cc1ccc(O)c(NC(=O)COc2cc(C)ccc2C)c1,> 80 µM (inactive)
8,C=CCn1c(O)c(C(CC)=NC(C)c2ccccc2)c(=O)[nH]c1=O (stereo not drawn),56.4 µM (inactive)
9,Cn1cnc([N+](=O)[O-])c1Sc1ccc([N+](=O)[O-])cc1,3.61 µM
10,Cc1ccc(C(=O)N2CCCC(c3ccc(Cl)cc3)=N2)cc1,> 80 µM (inactive)
11,CCOc1ccc(-n2c(SCC(=O)Nc3ccc4c(c3)OCCO4)nc3c(c2=O)SCC3)cc1,11.7 µM
12,CCc1ccc(/C=C2\SC(=S)N(CCC(=O)Nc3cc(C)on3)C2=O)cc1,19.3 µM
13,COc1ccc(/C=C2\SC(=S)N(CCC(=O)Nc3ccc(C(=O)O)cc3)C2=O)cc1,> 80 µM (inactive)
14,Cc1nnc2c3ccccc3c(-c3ccccc3)nn12,> 80 µM (inactive)
15,CC1Cc2ccccc2N1S(=O)(=O)c1cnc(Cl)c(Br)c1 (stereo not drawn),72.9 µM (inactive)
16,O=C(O)COc1ccc(-c2nccc(-c3ccccn3)n2)cc1,21.7 µM (inactive)
17,CCn1c(=O)c2cc(C(=O)NC(C)C)sc2c2ccccc21,> 80 µM (inactive)
18,Cc1nn(C(C)(C)C)c(OC(=O)c2ccc(Br)o2)c1Sc1ccccc1,> 80 µM (inactive)
19,O=C(Nc1cccc(S(=O)(=O)Nc2ccc(Cl)cc2)c1)c1ccc(Cl)nc1,41.6 µM (inactive)
20,O=C(NCCC1CCCCN1S(=O)(=O)c1ccc(Cl)cc1)C(=O)NCc1ccncc1 (stereo not drawn),4.22 µM
21,COc1cc(-c2[nH]nc3c2C(c2ccco2)C(C#N)=C(N)O3)cc(OC)c1OC (stereo not drawn),> 80 µM (inactive)
22,CC(C)(C)C(=O)/C(=C/c1ccncc1)n1cncn1,3.13 µM
23,Cc1ccc(CSc2nnc(SCC(=O)N/N=C/C=C/c3ccccc3[N+](=O)[O-])s2)cc1,> 80 µM (inactive)
24,CC(C)CCNC(=O)CCCOc1cc(=O)n(C)c2ccccc12,64.3 µM (inactive)
25,CSC1CCCCC1(O)CSc1nc2c(cc1C#N)CCCC2 (stereo not drawn),> 80 µM (inactive)

row,SMILES,IC50
1,COc1ccc(C(=O)n2nc(-c3ccc(Cl)cc3)nc2N)cc1OC,1.29 µM
2,O=C1NC[C@H](c2ccccc2)OC(=O)[C@@H](Cc2ccc(F)cc2)C/C=C\C[C@H]1CC(=O)N(CCO)Cc1ccccc1,9.87 µM
3,CC1=CC(C)(C)Nc2ccc(OC(=O)C(C)N3C(=O)c4ccccc4C3=O)cc21 (stereo not drawn),6.85 µM
4,COC(=O)c1[nH]c2ccc(C)cc2c1NC(=O)Nc1ccccc1OC,> 80 µM (inactive)
5,NC(=O)C1CCN(C(=O)COc2ccc3ccccc3c2Br)CC1,39.4 µM (inactive)
6,Cc1[nH]c2ccccc2c1/C=N/Nc1nc(Nc2ccc(F)cc2)nc(N2CCOCC2)n1,1.22 µM
7,CCNc1nc(C)c2cc(Br)c(=O)n(CC)c2n1,1.48 µM
8,CCOc1ccc(-n2c(-c3ccccc3)c[n+]3c2CCCCC3)cc1,> 80 µM (inactive)
9,Cc1ccc(C)c(-n2nnnc2Sc2nnnn2-c2ccccc2)c1,1.32 µM
10,C=CCOc1ccc(/C=C2\SC(=S)N(CCC(=O)O)C2=O)cc1,0.63 µM
11,CCOc1ccc(-c2noc(CCC(=O)O)n2)cc1,4.12 µM
12,Cc1nc2cc(-c3ccccc3)nn2c(C)c1CCC(=O)NCc1ccco1,> 80 µM (inactive)
13,CCc1sc(C(=O)Nc2cccc(-n3cnnn3)c2)cc1C,> 80 µM (inactive)
14,COc1cc(C(=O)Nc2cc(C)c(OCC(=O)N3CCOCC3)c(C)c2)cc(OC)c1OC,> 80 µM (inactive)
15,COc1cc(C2C(C#N)=C(N)Oc3cc(N)ccc32)cc(OC)c1OC (stereo not drawn),> 80 µM (inactive)
16,COc1ccc(-c2nn(C)c(=O)c3ccccc23)cc1NS(C)(=O)=O,39.9 µM (inactive)
17,Cc1cc(C)c(S(=O)(=O)NCc2ccncc2)c(C)c1,> 80 µM (inactive)
18,Cc1ccc(/C=C2\SC(=S)N(CCC(=O)NNC(=O)c3ccncc3)C2=O)cc1,> 80 µM (inactive)
19,CC(=O)C1=NN(c2ccccc2)C(c2cccs2)N1c1ccc(N(C)C)cc1 (stereo not drawn),31.7 µM (inactive)
20,CCc1ccc(/C=C2/SC(=S)N(CCC(=O)Nc3ccc(C(=O)O)cc3)C2=O)cc1,4.07 µM
21,CCOc1ccc(-c2nc(CSCC(=O)NC3CC3)c(C)o2)cc1,0.28 µM
22,Cc1cc(-c2cc(C(=O)NCc3ccccc3)on2)nc(S(C)(=O)=O)n1,3.93 µM
23,C[C@H]1CCC/C=C/[C@@H]2C[C@H](O)C[C@H]2[C@H](O)/C=C/C(=O)O1,> 80 µM (inactive)
24,COC(=O)[C@@]12OC[C@]34[C@H]([C@@H](O)[C@@H]1O)[C@@]1(C)C(=O)C(O[C@@H]5OC(CO)[C@@H](O)[C@@H](O)[C@@H]5O)=C[C@@H](C)[C@@H]1C[C@H]3OC(=O)[C@H](OC(=O)/C=C(\C)C(C)(C)OC(C)=O)[C@@H]24 (stereo partly drawn),0.42 µM
25,CC(C)[C@H](N)c1nnc(SCC(=O)c2ccc(Cl)cc2)o1,> 80 µM (inactive)

row,SMILES,IC50
1,CCN(CC)S(=O)(=O)c1ccc(N2CCOCC2)c(NC(=O)c2[nH]c(C)c(C(C)=O)c2C)c1,27.3 µM (inactive)
2,O=C(CCCN1C(=O)/C(=C/c2ccccc2Cl)SC1=S)Nc1cccnc1,1.75 µM
3,COc1ccc(-c2noc(N3CCC(C(=O)Nc4ccc(F)cc4F)CC3)n2)cc1,> 80 µM (inactive)
4,CCN1CCN(C(=O)CSc2cc(=O)n(CC)c3ccccc23)CC1,> 80 µM (inactive)
5,CCOc1ccc(/C=C2\SC(=S)N(CCC(=O)Nc3cccc(C(=O)O)c3)C2=O)cc1,8.87 µM
6,CCCS(=O)(=O)Nc1cccc(-c2ccc3nnc(C)n3n2)c1,> 80 µM (inactive)
7,COc1ccc(OC)c(S(=O)(=O)Nc2ccc(-c3ccc4nnc(C)n4n3)cc2)c1,> 80 µM (inactive)
8,CCN1C(=O)c2cccc3c(NC(=O)c4cccc(N5C(=O)CCC5=O)c4)ccc1c23,> 80 µM (inactive)
9,Cc1ccc(NC(=O)O/N=C/c2c(C)nn(C(C)(C)C)c2C)cc1Cl,< 0.16 µM
10,CCOC(=O)c1cc2c(=O)n3ccccc3nc2n(CC(C)C)c1=NC(=O)c1c(-c2c(F)cccc2Cl)noc1C,> 80 µM (inactive)
11,COc1cc(OC)cc(-c2cc3nc(C)c(CCC(=O)NCc4ccccc4)c(C)n3n2)c1,4.7 µM
12,Cn1nnnc1Sc1ncnc2scc(Br)c12,0.67 µM
13,CCc1ccc(/C=C2\SC(=S)N(CCC(=O)NC3=NCCS3)C2=O)cc1,12.4 µM
14,COc1ccc(NC(=S)NCc2ccccc2)c(OC)c1,> 80 µM (inactive)
15,COc1ccc(/C=N/OCC(=O)NC(c2ccccc2)c2ccccc2)cc1OC,> 80 µM (inactive)
16,Cc1ccc(NC(=O)C2CCC(CNc3c(N4CCC(C)CC4)c(=O)c3=O)CC2)cc1F (stereo not drawn),> 80 µM (inactive)
17,ClCc1nnc(-c2ccccc2)o1,12.7 µM
18,CN1CCN(C(=O)c2ccccc2N(Cc2ccccc2)S(=O)(=O)c2ccccc2)CC1,29.2 µM (inactive)
19,O=C(Nc1cccc(Oc2ccc3c(c2)C(=O)NC3=O)c1)c1cccs1,> 80 µM (inactive)
20,CCN(CC(=O)Nc1c(F)cccc1F)C(=O)c1cc(S(=O)(=O)N(CC)CC)ccc1N1CCCCC1,4.04 µM
21,CCOC(=O)Cc1csc(NC(=S)NC(=O)c2ccc(C)cc2)n1,5.88 µM
22,C=CCn1c(O)c(C(C)=NC(C)c2ccccc2)c(=O)[nH]c1=O (stereo not drawn),> 80 µM (inactive)
23,COc1ccc(C(C(=O)NC2CCCCC2)N(C(=O)CCl)c2ccc(Cl)cc2)cc1 (stereo not drawn),0.85 µM
